Measured values as given in ChEMBL document CHEMBL1949518, “Synthesis and biological evaluation of some new 2-pyrazolines bearing benzene sulfonamide moiety as potential anti-inflammatory and anti-cancer agents” (Eur J Med Chem, 2011).

Tests used:
Assay type in all cases: functional
[1] = system: ACHN; assay: Anticancer activity against human ACHN cells after 48 hrs by SRB assay; details: for CC50: read-out: LC50 (the source's name)
[2] = system: OVCAR-8; assay: Antiproliferative activity against human OVCAR8 cells assessed as cell growth at 10^-5 M after 48 hrs by SRB assay relative to control; details: OVCAR-8, 48 h, read-out: Activity
[3] = system: OVCAR-5; assay: Antiproliferative activity against human OVCAR5 cells assessed as cell growth at 10^-5 M after 48 hrs by SRB assay relative to control; details: OVCAR-5, 48 h, read-out: Activity
[4] = system: MOLT-4; assay: Antiproliferative activity against human MOLT4 cells assessed as cell growth at 10^-5 M after 48 hrs by SRB assay relative to control; details: MOLT-4, 48 h, read-out: Activity
[5] = system: Rattus norvegicus; assay: Antiinflammatory activity in Wistar rat assessed as inhibition of carrageenan-induced paw edema at 20 mg/kg, po administered 30 mins before carrageenan challenge measured after 5 hrs
[6] = system: MDA-MB-435; assay: Antiproliferative activity against human MDA-MB-435 cells assessed as cell growth at 10^-5 M after 48 hrs by SRB assay relative to control; details: MDA-MB-435, 48 h, read-out: Activity
[7] = system: BT-549; assay: Anticancer activity against human BT549 cells after 48 hrs by SRB assay; details: BT-549, 48 h; for CC50: read-out: LC50 (the source's name)
[8] = system: SN12C; assay: Antiproliferative activity against human SN12C cells assessed as cell growth at 10^-5 M after 48 hrs by SRB assay relative to control; details: read-out: Activity
[9] = system: OVCAR-4; assay: Antiproliferative activity against human OVCAR4 cells assessed as cell growth at 10^-5 M after 48 hrs by SRB assay relative to control; details: OVCAR-4, 48 h, read-out: Activity
[10] = system: Malme-3M; assay: Anticancer activity against human MALME-3M cells after 48 hrs by SRB assay; details: for CC50: read-out: LC50 (the source's name)
[11] = system: A549; assay: Antiproliferative activity against human A549 cells assessed as cell growth at 10^-5 M after 48 hrs by SRB assay relative to control; details: A549, 48 h, read-out: Activity
[12] = system: SK-MEL-5; assay: Anticancer activity against human SK-MEL-5 cells after 48 hrs by SRB assay; details: SK-MEL-5, 48 h
[13] = system: UACC-257; assay: Antiproliferative activity against human UACC257 cells assessed as cell growth at 10^-5 M after 48 hrs by SRB assay relative to control; details: UACC-257, 48 h, read-out: Activity
[14] = system: HCC 2998; assay: Antiproliferative activity against human HCC2998 cells assessed as cell growth at 10^-5 M after 48 hrs by SRB assay relative to control; details: HCC 2998, 48 h, read-out: Activity
[15] = system: SF-539; assay: Anticancer activity against human SF539 cells after 48 hrs by SRB assay; details: SF-539, 48 h
[16] = system: COLO 205; assay: Antiproliferative activity against human COLO205 cells assessed as cell growth at 10^-5 M after 48 hrs by SRB assay relative to control; details: COLO 205, 48 h, read-out: Activity
[17] = system: SN12C; assay: Anticancer activity against human SN12C cells after 48 hrs by SRB assay; details: for CC50: read-out: LC50 (the source's name)
[18] = system: NCI-H522; assay: Antiproliferative activity against human NCI-H522 cells assessed as cell growth at 10^-5 M after 48 hrs by SRB assay relative to control; details: NCI-H522, 48 h, read-out: Activity
[19] = system: SW-620; assay: Anticancer activity against human SW620 cells after 48 hrs by SRB assay; details: SW-620, 48 h
[20] = system: A549; assay: Anticancer activity against human A549 cells after 48 hrs by SRB assay; details: A549, 48 h
[21] = system: T47D; assay: Antiproliferative activity against human T47D cells assessed as cell growth at 10^-5 M after 48 hrs by SRB assay relative to control; details: read-out: Activity
[22] = system: SNB-19; assay: Antiproliferative activity against human SNB19 cells assessed as cell growth at 10^-5 M after 48 hrs by SRB assay relative to control; details: SNB-19, 48 h, read-out: Activity
[23] = system: HOP-92; assay: Antiproliferative activity against human HOP92 cells assessed as cell growth at 10^-5 M after 48 hrs by SRB assay relative to control; details: HOP-92, 48 h, read-out: Activity
[24] = system: Malme-3M; assay: Antiproliferative activity against human MALME-3M cells assessed as cell growth at 10^-5 M after 48 hrs by SRB assay relative to control; details: read-out: Activity
[25] = system: RPMI-8226; assay: Antiproliferative activity against human RPMI8226 cells assessed as cell growth at 10^-5 M after 48 hrs by SRB assay relative to control; details: RPMI-8226, 48 h, read-out: Activity
[26] = system: MDA-MB-468; assay: Antiproliferative activity against human MDA-MB-468 cells assessed as cell growth at 10^-5 M after 48 hrs by SRB assay relative to control; details: MDA-MB-468, 48 h, read-out: Activity
[27] = system: EKVX; assay: Antiproliferative activity against human EKVX cells assessed as cell growth at 10^-5 M after 48 hrs by SRB assay relative to control; details: read-out: Activity
[28] = system: HT-29; assay: Antiproliferative activity against human HT-29 cells assessed as cell growth at 10^-5 M after 48 hrs by SRB assay relative to control; details: HT-29, 48 h, read-out: Activity
[29] = system: M14; assay: Antiproliferative activity against human M14 cells assessed as cell growth at 10^-5 M after 48 hrs by SRB assay relative to control; details: M14, 48 h, read-out: Activity
[30] = system: SK-MEL-28; assay: Antiproliferative activity against human SK-MEL-28 cells assessed as cell growth at 10^-5 M after 48 hrs by SRB assay relative to control; details: SK-MEL-28, 48 h, read-out: Activity
[31] = system: HT-29; assay: Anticancer activity against human HT-29 cells after 48 hrs by SRB assay; details: HT-29, 48 h
[32] = system: A498; assay: Antiproliferative activity against human A498 cells assessed as cell growth at 10^-5 M after 48 hrs by SRB assay relative to control; details: A498, 48 h, read-out: Activity
[33] = system: UACC-62; assay: Antiproliferative activity against human UACC62 cells assessed as cell growth at 10^-5 M after 48 hrs by SRB assay relative to control; details: UACC-62, 48 h, read-out: Activity
[34] = system: NCI-H23; assay: Antiproliferative activity against human NCI-H23 cells assessed as cell growth at 10^-5 M after 48 hrs by SRB assay relative to control; details: NCI-H23, 48 h, read-out: Activity

SMILES: Cc1cc(O)c(C2=NN(c3ccc(S(N)(=O)=O)cc3)C(c3ccc(N(C)C)cc3)C2)c(C)c1Cl (centres undefined)
- GI50 [1]: 3.7 µM
- TGI [1]: 14.4 µM
- CC50 [1]: 39.5 µM
- growth at 10 µM [2]: 5.73%
- growth at 10 µM [3]: 95.2%
- growth at 10 µM [4]: 14.3%
- inhibition in vivo at 20 mg/kg [5]: 36.4%
- growth at 10 µM [6]: 38.6%
- GI50 [7]: 1.31 µM
- TGI [7]: 27.7 µM
- CC50 [7]: 58.9 µM
- growth at 10 µM [8]: 36.1%
- growth at 10 µM [9]: 58.9%
- GI50 [10]: 14.8 µM
- TGI [10]: 35.2 µM
- CC50 [10]: 83.4 µM
- growth at 10 µM [11]: 33.2%
- GI50 [12]: 9.59 µM
- LC50 (concentration killing 50% of cells) [12]: 46.2 µM
- TGI [12]: 21.4 µM
- growth at 10 µM [13]: 74.1%
- growth at 10 µM [14]: 66.5%
- GI50 [15]: 12.3 µM
- LC50 [15]: 49.7 µM
- TGI [15]: 24.7 µM
- growth at 10 µM [16]: 30.8%
- GI50 [17]: 5.71 µM
- TGI [17]: 19.2 µM
- CC50 [17]: 43.9 µM
- growth at 10 µM [18]: 57.7%
- GI50 [19]: 3.72 µM
- LC50 (concentration killing 50% of cells) [19]: 50.2 µM
- TGI [19]: 15.2 µM
- GI50 [20]: 5.91 µM
- LC50 [20]: 73.4 µM
- TGI [20]: 22.5 µM
- growth at 10 µM [21]: 46.9%
- growth at 10 µM [22]: 89.8%
- growth at 10 µM [23]: 21.3%
- growth at 10 µM [24]: 103%
- growth at 10 µM [25]: -37.6%
- growth at 10 µM [26]: 43.7%
- growth at 10 µM [27]: 49.7%
- growth at 10 µM [28]: 55.1%
- growth at 10 µM [29]: 39.1%
- growth at 10 µM [30]: 76.3%
- GI50 [31]: 3.3 µM
- LC50 [31]: 37.6 µM
- TGI [31]: 11 µM
- growth at 10 µM [32]: 87.2%
- growth at 10 µM [33]: 53%
- growth at 10 µM [34]: 78.8%

SMILES: COc1ccc(C2CC(c3c(O)cc(C)c(Cl)c3C)=NN2c2ccc(S(N)(=O)=O)cc2)cc1 (centres undefined)
- growth at 10 µM [2]: 101%
- growth at 10 µM [3]: 86.6%
- growth at 10 µM [4]: 36.5%
- inhibition in vivo at 20 mg/kg [5]: 36.4%
- growth at 10 µM [6]: 79.3%
- growth at 10 µM [8]: 99.4%
- growth at 10 µM [9]: 86.4%
- growth at 10 µM [11]: 56%
- growth at 10 µM [13]: 103%
- growth at 10 µM [14]: 97.6%
- growth at 10 µM [16]: 102%
- growth at 10 µM [18]: 71.5%
- growth at 10 µM [21]: 62.1%
- growth at 10 µM [22]: 92.7%
- growth at 10 µM [23]: 43.3%
- growth at 10 µM [24]: 138%
- growth at 10 µM [25]: 63.9%
- growth at 10 µM [26]: 91.5%
- growth at 10 µM [27]: 70.5%
- growth at 10 µM [28]: 109%
- growth at 10 µM [29]: 77.8%
- growth at 10 µM [30]: 96.7%
- growth at 10 µM [32]: 93.2%
- growth at 10 µM [33]: 74%
- growth at 10 µM [34]: 108%

SMILES: Cc1cc(O)c(C2=NN(c3ccc(S(N)(=O)=O)cc3)C(c3ccc(Cl)cc3)C2)c(C)c1Cl (centres undefined)
- GI50 [1]: 14.9 µM
- TGI [1]: 30.6 µM
- CC50 [1]: 62.9 µM
- growth at 10 µM [2]: 75.2%
- growth at 10 µM [3]: 96.8%
- growth at 10 µM [4]: 27.3%
- inhibition in vivo at 20 mg/kg [5]: 81.8%
- growth at 10 µM [6]: 69.3%
- GI50 [7]: 15.4 µM
- TGI [7]: 43.3 µM
- CC50 [7]: 100 µM
- growth at 10 µM [8]: 74.8%
- growth at 10 µM [9]: 58.8%
- GI50 [10]: 14.8 µM
- TGI [10]: 32.7 µM
- CC50 [10]: 72.1 µM
- growth at 10 µM [11]: 40.8%
- GI50 [12]: 14.5 µM
- TGI [12]: 27.8 µM
- growth at 10 µM [13]: 97.6%
- growth at 10 µM [14]: 94.1%
- GI50 [15]: 15.7 µM
- TGI [15]: 29.3 µM
- growth at 10 µM [16]: 76.2%
- GI50 [17]: 9.62 µM
- TGI [17]: 24.9 µM
- CC50 [17]: 63 µM
- growth at 10 µM [18]: 39.8%
- GI50 [19]: 18.4 µM
- TGI [19]: 37.8 µM
- GI50 [20]: 14.7 µM
- TGI [20]: 43.4 µM
- growth at 10 µM [21]: 37%
- growth at 10 µM [22]: 107%
- growth at 10 µM [23]: 45.5%
- growth at 10 µM [24]: 157%
- growth at 10 µM [25]: 25.5%
- growth at 10 µM [26]: 91.1%
- growth at 10 µM [27]: 51.1%
- growth at 10 µM [28]: 52.7%
- growth at 10 µM [29]: 89.3%
- growth at 10 µM [30]: 90.2%
- GI50 [31]: 10.9 µM
- TGI [31]: 25.8 µM
- growth at 10 µM [32]: 74.3%
- growth at 10 µM [33]: 64.8%
- growth at 10 µM [34]: 79.3%
